Source: the supplement of paper PMC10883282
± gives the standard deviation of the averaged measurements.

System: SW872
Assay: relative viability vs DMSO control (72 h) (fraction); higher = more viable cells
In short: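 Sarcoma cell lines in 384-well plates, seeded to reach 80–90% confluence, were given compound after 24 h and kept 72 h at 37 °C, 5% CO2, with 0.1% DMSO vehicle and a 5 µM positive control. Relative viability came from ATPLite as percent growth, averaged over up to triplicate wells. On the rescaled values, 1 equals full and 0 equals none.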

Row | Structure (SMILES) | relative viability (0.00017 µM) | relative viability (0.00051 µM) | relative viability (0.00152 µM) | relative viability (0.00457 µM) | relative viability (0.01372 µM) | relative viability (0.04115 µM) | relative viability (0.1235 µM) | relative viability (0.3704 µM) | relative viability (1.111 µM) | relative viability (3.333 µM) | relative viability (10 µM)
1 | Cc1cc(C)c(/C=C2\C(=O)Nc3ccccc32)[nH]1 [Semaxanib] | 0.968 ± 0.038 | 0.968 ± 0.024 | 0.938 ± 0.084 | 0.933 ± 0.067 | 0.936 ± 0.062 | 0.953 ± 0.067 | 0.979 ± 0.022 | 0.99 ± 0.028 | 0.963 ± 0.042 | 0.972 ± 0.031 | 0.8936 ± 0.0083
2 | O=C(Nc1cnn2ccc(N3CCC[C@@H]3c3cc(F)ccc3F)nc12)N1CC[C@H](O)C1 [Larotrectinib] | 1.09 ± 0.022 | 1.12 ± 0.052 | 1.09 ± 0.072 | 1.08 ± 0.049 | 1.05 ± 0.11 | 0.99 ± 0.076 | 1.06 ± 0.095 | 1.06 ± 0.078 | 1.03 ± 0.065 | 1.03 ± 0.056 | 0.986 ± 0.044
3 | C=CC(=O)N1CCC[C@@H](n2nc(-c3ccc(Oc4ccccc4)cc3)c3c(N)ncnc32)C1 [Ibrutinib] | 1.06 ± 0.016 | 1.06 ± 0.017 | 1.06 ± 0.064 | 1.01 ± 0.022 | 1.01 ± 0.042 | 0.976 ± 0.037 | 0.98 ± 0.081 | 0.923 ± 0.024 | 0.9099 ± 0.0036 | 0.84 ± 0.049 | 0.583 ± 0.027
4 | CC(C)N1CCN(Cc2cnc(-c3cc(-c4cccc5[nH]ccc45)cc4[nH]ncc34)o2)CC1 [Nemiralisib] | 0.975 ± 0.035 | 0.982 ± 0.036 | 0.945 ± 0.043 | 0.945 ± 0.018 | 0.916 ± 0.033 | 0.949 ± 0.042 | 0.952 ± 0.018 | 0.896 ± 0.014 | 0.819 ± 0.032 | 0.622 ± 0.043 | 0.448 ± 0.017
5 | CN1CCN(c2ccc3nc(-c4c(N)c5c(F)cccc5[nH]c4=O)[nH]c3c2)CC1 [Dovitinib] | 1.05 ± 0.054 | 1.04 ± 0.022 | 1.06 ± 0.015 | 1.08 ± 0.018 | 1.06 ± 0.045 | 1.05 ± 0.025 | 0.937 ± 0.097 | 0.891 ± 0.067 | 0.604 ± 0.03 | 0.402 ± 0.023 | 0.235 ± 0.022
6 | COc1c(OCCCN2CCOCC2)ccc2c1N=C(NC(=O)c1cnc(N)nc1)N1CCN=C21 [Copanlisib] | 1.07 ± 0.03 | 1.02 ± 0.049 | 1.02 ± 0.064 | 0.817 ± 0.059 | 0.689 ± 0.037 | 0.599 ± 0.08 | 0.425 ± 0.033 | 0.284 ± 0.0047 | 0.193 ± 0.013 | 0.16 ± 0.006 | 0.149 ± 0.015
7 | CNC(=O)c1ccc(-c2cnc3ncc(Cc4ccc5ncccc5c4)n3n2)cc1F [Capmatinib] | 1.04 ± 0.041 | 1.03 ± 0.026 | 1.04 ± 0.048 | 1.03 ± 0.025 | 1.05 ± 0.049 | 1.05 ± 0.022 | 1.03 ± 0.043 | 1.06 ± 0.029 | 0.987 ± 0.024 | 1.02 ± 0.012 | 1 ± 0.019
8 | Cn1cc(-c2cc3c(N4CCN(c5ncc([C@@](C)(N)c6ccc(F)cc6)cn5)CC4)ncnn3c2)cn1 [Avapritinib] | 0.913 ± 0.047 | 0.95 ± 0.022 | 0.965 ± 0.041 | 0.939 ± 0.026 | 0.972 ± 0.036 | 0.941 ± 0.035 | 0.953 ± 0.032 | 0.886 ± 0.038 | 0.846 ± 0.029 | 0.766 ± 0.038 | 0.67 ± 0.028
9 | CCCS(=O)(=O)Nc1ccc(F)c(C(=O)c2c[nH]c3ncc(-c4ccc(Cl)cc4)cc23)c1F [Vemurafenib] | 1.05 ± 0.096 | 1.07 ± 0.099 | 1.08 ± 0.074 | 1.07 ± 0.067 | 1.07 ± 0.08 | 1.02 ± 0.033 | 0.863 ± 0.059 | 0.706 ± 0.063 | 0.642 ± 0.058 | 0.528 ± 0.034 | 0.342 ± 0.015
10 | CC1(C)CNc2cc(NC(=O)c3cccnc3NCc3ccncc3)ccc21 [Motesanib] | 1 ± 0.03 | 0.988 ± 0.014 | 0.972 ± 0.025 | 0.971 ± 0.029 | 0.95 ± 0.047 | 0.98 ± 0.012 | 0.971 ± 0.035 | 0.999 ± 0.015 | 0.978 ± 0.021 | 0.958 ± 0.035 | 0.811 ± 0.028
11 | C=CC(=O)Nc1cccc(Oc2nc(Nc3ccc(N4CCN(C)CC4)cc3)nc3ccsc23)c1 [Olmutinib] | 1.01 ± 0.04 | 1.03 ± 0.011 | 1.02 ± 0.029 | 1.03 ± 0.034 | 1.034 ± 0.0086 | 1.01 ± 0.044 | 1.01 ± 0.011 | 1.02 ± 0.018 | 1.011 ± 0.0092 | 0.873 ± 0.05 | 0.625 ± 0.015
12 | COc1cc2nccc(Oc3ccc(NC(=O)Nc4cc(C)on4)c(Cl)c3)c2cc1OC [Tivozanib] | 1.07 ± 0.073 | 1.07 ± 0.026 | 1.04 ± 0.031 | 1.06 ± 0.038 | 1.08 ± 0.031 | 1.09 ± 0.039 | 1.08 ± 0.044 | 1.1 ± 0.051 | 1.07 ± 0.028 | 1.03 ± 0.036 | 0.691 ± 0.031
13 | CNC(=O)c1cc(Oc2ccc(NC(=O)Nc3ccc(Cl)c(C(F)(F)F)c3)c(F)c2)ccn1 [Regorafenib] | 1.11 ± 0.07 | 1.12 ± 0.039 | 1.12 ± 0.034 | 1.14 ± 0.025 | 1.14 ± 0.017 | 1.119 ± 0.011 | 1.11 ± 0.013 | 1.07 ± 0.061 | 0.96 ± 0.027 | 0.824 ± 0.058 | 0.662 ± 0.027
14 | Cc1ccc(F)c(NC(=O)Nc2ccc(-c3cccc4[nH]nc(N)c34)cc2)c1 [Linifanib] | 1.07 ± 0.042 | 1.06 ± 0.048 | 1.07 ± 0.028 | 1.02 ± 0.027 | 1.012 ± 0.0025 | 1.01 ± 0.015 | 1.01 ± 0.053 | 0.991 ± 0.022 | 1.02 ± 0.033 | 1.05 ± 0.049 | 1.03 ± 0.076
15 | Cc1cnc(Nc2ccc(OCCN3CCCC3)cc2)nc1Nc1cccc(S(=O)(=O)NC(C)(C)C)c1 [Fedratinib] | 1.04 ± 0.013 | 1.06 ± 0.027 | 1.05 ± 0.034 | 1.01 ± 0.073 | 1.04 ± 0.044 | 1.03 ± 0.075 | 0.942 ± 0.064 | 0.699 ± 0.049 | 0.408 ± 0.024 | 0.16 ± 0.018 | 0.00193 ± 0.0011
16 | C=CC(=O)N1CCC([C@@H]2CCNc3c(C(N)=O)c(-c4ccc(Oc5ccccc5)cc4)nn32)CC1 [Zanubrutinib] | 1.01 ± 0.032 | 1.03 ± 0.028 | 0.996 ± 0.038 | 1.01 ± 0.029 | 0.9666 ± 0.0096 | 0.954 ± 0.046 | 0.883 ± 0.066 | 0.923 ± 0.026 | 0.912 ± 0.034 | 0.929 ± 0.029 | 0.844 ± 0.022
17 | CN1CCC(COc2cnc(-c3cccc(Cn4nc(-c5cccc(C#N)c5)ccc4=O)c3)nc2)CC1 [Tepotinib] | 1.057 ± 0.008 | 1.07 ± 0.02 | 1.05 ± 0.037 | 1.04 ± 0.022 | 1.03 ± 0.038 | 1.01 ± 0.022 | 1.04 ± 0.016 | 1.02 ± 0.043 | 0.999 ± 0.019 | 0.972 ± 0.039 | 0.918 ± 0.033
18 | Cc1nc(NC(=O)N2CCC[C@H]2C(N)=O)sc1-c1ccnc(C(C)(C)C(F)(F)F)c1 [Alpelisib] | 1.04 ± 0.055 | 1.04 ± 0.046 | 1.03 ± 0.052 | 1 ± 0.062 | 0.965 ± 0.068 | 0.938 ± 0.077 | 0.835 ± 0.039 | 0.778 ± 0.062 | 0.698 ± 0.085 | 0.565 ± 0.035 | 0.398 ± 0.024
